According to ChEMBL document CHEMBL1800040, “Quantitative structure-activity relationship study of phloroglucinol-terpene adducts as anti-leishmanial agents” (Bioorg Med Chem Lett, 2011):

Test system: Leishmania donovani
Test: Antileishmanial activity against Leishmania donovani promastigotes
Type: functional, organism-based

Structure (SMILES)	IC50 (read-out: IC50)	IC50 (read-out: pIC50 (converted)) [µM]
CC(C)CC(=O)c1c(O)c(C=O)c(O)c2c1O[C@@]1(CO)[C@@H](C2)C[C@H]2C[C@@H]1C2(C)C	7.45 µM	7.45
CC(C)CC(=O)c1c(O)c2c(c(C(=O)CC(C)C)c1O)O[C@@]1(CO)[C@@H](C2)C[C@H]2C[C@@H]1C2(C)C	6.93 µM	6.93
CC(C)CC(=O)c1c(O)c2c(c(C(=O)CC(C)C)c1O)O[C@@]1(CCO)[C@@H](C2)C[C@H]2C[C@@H]1C2(C)C	> 40 µg/mL	–
CC1(C)[C@H]2[C@@H]1CC[C@@H]1Cc3c(O)c(C=O)c(O)c(C=O)c3O[C@@]12C	5.17 µM	6.05
CC1(C)[C@@H]2C[C@@]3(C)Oc4c(C=O)c(O)c(C=O)c(O)c4C[C@H]3C[C@@H]21	5.75 µM	5.75
CC1(C)[C@H]2CC[C@@]3(CCc4c(O)c(C=O)c(O)c(C=O)c4O3)[C@@H]1C2	6.36 µM	6.35
CC(C)CC(=O)c1c(O)c2c(c(C(=O)CC(C)C)c1O)O[C@]1(CC2)[C@@H]2CC[C@@H](C2)C1(C)C	> 40 µg/mL	–
CC(C)C[C@H]1C[C@@]2(CC[C@H]3C[C@@H]2C3(C)C)Oc2c(C=O)c(O)c(C=O)c(O)c21	5.17 µM	5.18
CC1(C)[C@H]2C[C@@H]3Cc4c(O)c(C=O)c(O)c(C=O)c4O[C@]3(CO)[C@@H]1C2	> 40 µg/mL	–
CC(C)CC(=O)c1c(O)c2c(c(C(=O)CC(C)C)c1O)O[C@]1(C)C[C@@H]3[C@H](C[C@@H]1C2)C3(C)C	> 40 µg/mL	–
CC(C)CC(=O)c1c(O)c2c(c(C(=O)CC(C)C)c1O)O[C@@]1(C)[C@H](CC[C@H]3[C@@H]1C3(C)C)C2	> 40 µg/mL	–
CC(C)CC(=O)c1c(O)c(C=O)c(O)c2c1O[C@@]1(CCO)[C@@H](C2)C[C@H]2C[C@@H]1C2(C)C	7.68 µM	7.69
CC(C)CC(=O)c1c(O)c2c(c(C(=O)CC(C)C)c1O)O[C@@]1(C)[C@@H](C2)C[C@H]2C[C@@H]1C2(C)C	> 40 µg/mL	–
CC(C)CC(=O)c1c(O)c2c(c(C(=O)CC(C)C)c1O)O[C@@]1(CC2)CC[C@H]2C[C@@H]1C2(C)C	> 40 µg/mL	–
CC1(C)[C@H]2C[C@@H]3Cc4c(O)c(C=O)c(O)c(C=O)c4O[C@]3(CCO)[C@@H]1C2	6.1 µM	6.11
CC1(C)[C@H]2C[C@@H]3Cc4c(O)c(C=O)c(O)c(C=O)c4O[C@]3(C)[C@@H]1C2	7.26 µM	7.26

Second part, the compound after the results:

IC50 (read-out: IC50)	IC50 (read-out: pIC50 (converted)) [µM]	Structure (SMILES)
2.73 µM	2.73	CC(=O)c1c(O)c(C=O)c2c(c1O)C[C@H]1C[C@H]3C[C@H](C3(C)C)[C@@]1(C)O2
4.94 µM	4.93	CC(=O)c1c(O)c(C=O)c(O)c2c1O[C@@]1(C)[C@@H](C2)C[C@H]2C[C@@H]1C2(C)C
4.65 µM	4.65	CC(=O)c1c(O)c(C=O)c2c(c1O)CC[C@@]1(CC[C@H]3C[C@@H]1C3(C)C)O2
4.07 µM	3.62	CC(C)CC(=O)c1c(O)c(C=O)c(O)c2c1O[C@]1(CC2)[C@@H]2CC[C@@H](C2)C1(C)C
4.07 µM	4.06	CC(=O)c1c(O)c(C=O)c(O)c2c1O[C@]1(C)C[C@@H]3[C@H](C[C@@H]1C2)C3(C)C
1.25 µM	1.25	CC(=O)c1c(O)c(C=O)c2c(c1O)CC[C@@]1(O2)[C@@H]2CC[C@@H](C2)C1(C)C
3.1 µM	3.1	CC(C)CC(=O)c1c(O)c(C=O)c(O)c2c1O[C@@]1(CC2)CC[C@H]2C[C@@H]1C2(C)C [EUGLOBAL G4]
0.93 µM	0.931	CC(C)CC(=O)c1c(O)c(C=O)c2c(c1O)CC[C@@]1(O2)[C@@H]2CC[C@@H](C2)C1(C)C
1.42 µM	1.42	CC(C)CC(=O)c1c(O)c(C=O)c(O)c2c1O[C@@]1(C)[C@H](CC[C@H]3[C@@H]1C3(C)C)C2
4.07 µM	4.24	CC1(C)[C@H]2CC[C@H](C2)[C@]12CCc1c(O)c(C=O)c(O)c(C=O)c1O2
4.14 µM	4.14	CC(C)C[C@@H]1C[C@@]2(CC[C@H]3C[C@@H]2C3(C)C)Oc2c(C=O)c(O)c(C=O)c(O)c21
4.47 µM	4.48	CC(C)CC(=O)c1c(O)c(C=O)c2c(c1O)C[C@H]1C[C@H]3C[C@H](C3(C)C)[C@@]1(CO)O2
2.76 µM	2.76	CC(=O)c1c(O)c(C=O)c2c(c1O)C[C@H]1C[C@H]3[C@@H](C[C@@]1(C)O2)C3(C)C
4.65 µM	4.65	CC(=O)c1c(O)c(C=O)c(O)c2c1O[C@@]1(CC2)CC[C@H]2C[C@@H]1C2(C)C
0.93 µM	0.931	CC(C)CC(=O)c1c(O)c(C=O)c2c(c1O)C[C@H]1C[C@H]3C[C@H](C3(C)C)[C@@]1(C)O2 [EUGLOBAL G2]
0.73 µM	0.724	CC(C)CC(=O)c1c(O)c(C=O)c2c(c1O)C[C@H]1C[C@H]3[C@@H](C[C@@]1(C)O2)C3(C)C
1.84 µM	1.84	CC(C)CC(=O)c1c(O)c(C=O)c(O)c2c1O[C@@]1(C)[C@@H](C2)C[C@H]2C[C@@H]1C2(C)C [EUGLOBAL G1]
1.6 µM	1.6	CC(C)CC(=O)c1c(O)c(C=O)c(O)c2c1O[C@]1(C)C[C@@H]3[C@H](C[C@@H]1C2)C3(C)C
1 µM	1.01	CC(C)CC(=O)c1c(O)c(C=O)c2c(c1O)CC[C@@]1(CC[C@H]3C[C@@H]1C3(C)C)O2 [EUGLOBAL G3]
4.47 µM	5.22	CC(=O)c1c(O)c(C=O)c(O)c2c1O[C@]1(CC2)[C@@H]2CC[C@@H](C2)C1(C)C
2.28 µM	2.28	CC(C)CC(=O)c1c(O)c(C=O)c2c(c1O)C[C@H]1C[C@H]3C[C@H](C3(C)C)[C@@]1(CCO)O2
0.62 µM	0.621	CC(C)CC(=O)c1c(O)c(C=O)c2c(c1O)C[C@H]1CC[C@H]3[C@H](C3(C)C)[C@@]1(C)O2
